We go through 3 compounds from publication PMC11085544, “Anticholinesterase Activity of Methanolic Extract of Amorpha fruticosa Flowers and Isolation of Rotenoids and Putrescine and Spermidine Derivatives” (Plants, 2024).

Common to all, as to format: biochemical
In assay [1] the target is T1, AChE (acetylcholinesterase) (Electrophorus electricus, UniProt O42275). Briefly: Ellman colorimetric assay with electric eel AChE, % inhibition at […]. The following applies: 100 µM. (In general: Ellman's reagent forms a yellow product with free thiols.)
T1 sequence (O42275 24-633): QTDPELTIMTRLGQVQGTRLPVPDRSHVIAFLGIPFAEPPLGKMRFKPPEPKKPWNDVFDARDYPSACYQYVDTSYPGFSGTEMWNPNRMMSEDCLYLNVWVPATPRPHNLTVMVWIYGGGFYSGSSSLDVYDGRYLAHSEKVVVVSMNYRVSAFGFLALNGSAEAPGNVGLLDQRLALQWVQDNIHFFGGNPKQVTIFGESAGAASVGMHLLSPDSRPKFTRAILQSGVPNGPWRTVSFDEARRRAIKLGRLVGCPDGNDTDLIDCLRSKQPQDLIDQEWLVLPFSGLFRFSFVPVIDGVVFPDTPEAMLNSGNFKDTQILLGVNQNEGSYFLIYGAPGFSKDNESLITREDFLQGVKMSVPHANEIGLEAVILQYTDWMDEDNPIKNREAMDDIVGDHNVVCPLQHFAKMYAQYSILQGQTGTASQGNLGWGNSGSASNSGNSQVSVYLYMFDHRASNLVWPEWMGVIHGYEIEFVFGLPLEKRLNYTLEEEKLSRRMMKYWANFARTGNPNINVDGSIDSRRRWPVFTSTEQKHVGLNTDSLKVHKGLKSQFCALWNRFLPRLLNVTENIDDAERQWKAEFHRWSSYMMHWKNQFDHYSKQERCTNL
The target of assay [2] is T1, AChE (acetylcholinesterase). Briefly: Ellman colorimetric assay with electric eel AChE.
Assay [3] deals with T2, BuChE (butyrylcholinesterase) (Equus caballus, UniProt P81908).
T2 construct: gene BCHE
T2 sequence (P81908 whole entry): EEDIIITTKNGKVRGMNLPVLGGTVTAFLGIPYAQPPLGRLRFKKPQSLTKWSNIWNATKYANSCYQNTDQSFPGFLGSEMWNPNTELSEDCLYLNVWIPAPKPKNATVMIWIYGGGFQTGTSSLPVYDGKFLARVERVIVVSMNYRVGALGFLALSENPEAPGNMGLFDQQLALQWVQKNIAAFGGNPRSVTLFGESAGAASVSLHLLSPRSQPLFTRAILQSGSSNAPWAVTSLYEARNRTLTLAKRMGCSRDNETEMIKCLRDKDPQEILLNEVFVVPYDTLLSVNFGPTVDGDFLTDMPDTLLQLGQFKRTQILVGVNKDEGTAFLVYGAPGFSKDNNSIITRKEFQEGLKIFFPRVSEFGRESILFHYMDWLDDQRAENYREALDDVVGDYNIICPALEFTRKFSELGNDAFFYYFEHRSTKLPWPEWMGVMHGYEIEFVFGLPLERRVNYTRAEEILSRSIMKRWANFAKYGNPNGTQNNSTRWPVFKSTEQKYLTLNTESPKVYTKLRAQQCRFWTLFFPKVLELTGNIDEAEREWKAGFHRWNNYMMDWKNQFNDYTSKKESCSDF
Briefly: Ellman colorimetric assay with equine serum BuChE, % inhibition at […].

Take 6-deoxyclitoriacetal [compound 7]: in assay [1], the “% Inhibition of AChE” value stood at 37.9 ± 5.0.
In general, IC50 refers to the midpoint of a concentration-inhibition curve. The low end stands for higher potency, the high end for lower potency. The inhibition is the percentage by which the read-out fell short of the control. A higher inhibition goes with a strong effect. Compound `O=C(/C=C/c1ccc(O)cc1)NCCCCN(CCCNC(=O)/C=C/c1ccc(O)cc1)C(=O)/C=C/c1ccc(O)cc1` [compound 5, N^1,N^5,N^10-(E)-tri-p-coumaroylspermidine] returned an IC50 in assay [2] of 102 ± 8.1 µM. Also, the inhibition at 100 µM in assay [3] turned out to be 43.8 ± 1.9%.
The compound `COC1=CC(=O)[C@]2(C=C1OC)OC[C@H]1Oc3c(ccc4c3C=CC(C)(C)O4)C(=O)[C@H]12` [compound 8, amorphispironone] registered an inhibition at 100 µM in assay [3] of 37.6 ± 2.7%.
